ChEMBL document CHEMBL1201862, “PubChem BioAssay data set” (2004)
Activity calls are given as the source filed them.

Assays:
[1] = target: NAD-dependent protein deacylase sirtuin-5, mitochondrial (Homo sapiens, UniProt Q9NXA8); assay: sirtuin-5 deacylation blockers, concentration series – biochemical, fluorescence imaging, cherry-pick, set 5, dose response (AID 720591);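 also: desuccinylation of succinyl peptide AMC substrate read as fluorescence after trypsin release; potency of inhibitors that lower fluorescence and may act on trypsin instead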
[2] = Late stage counterscreen for inhibitors of Trypanosoma brucei methionyl tRNA synthetase (MetRS): Luminescence-based cell-based high throughput dose response assay to identify compounds that are cytotoxic to Jurkat human T lymphocyte cells.; assay type: functional
[3] = target: T1, Methionyl-tRNA synthetase, putative (Trypanosoma brucei brucei, UniProt Q38C91); assay type: functional, Trypanosoma brucei brucei strain 927/4 GUTat10.1
T1 sequence (Q38C91 whole entry): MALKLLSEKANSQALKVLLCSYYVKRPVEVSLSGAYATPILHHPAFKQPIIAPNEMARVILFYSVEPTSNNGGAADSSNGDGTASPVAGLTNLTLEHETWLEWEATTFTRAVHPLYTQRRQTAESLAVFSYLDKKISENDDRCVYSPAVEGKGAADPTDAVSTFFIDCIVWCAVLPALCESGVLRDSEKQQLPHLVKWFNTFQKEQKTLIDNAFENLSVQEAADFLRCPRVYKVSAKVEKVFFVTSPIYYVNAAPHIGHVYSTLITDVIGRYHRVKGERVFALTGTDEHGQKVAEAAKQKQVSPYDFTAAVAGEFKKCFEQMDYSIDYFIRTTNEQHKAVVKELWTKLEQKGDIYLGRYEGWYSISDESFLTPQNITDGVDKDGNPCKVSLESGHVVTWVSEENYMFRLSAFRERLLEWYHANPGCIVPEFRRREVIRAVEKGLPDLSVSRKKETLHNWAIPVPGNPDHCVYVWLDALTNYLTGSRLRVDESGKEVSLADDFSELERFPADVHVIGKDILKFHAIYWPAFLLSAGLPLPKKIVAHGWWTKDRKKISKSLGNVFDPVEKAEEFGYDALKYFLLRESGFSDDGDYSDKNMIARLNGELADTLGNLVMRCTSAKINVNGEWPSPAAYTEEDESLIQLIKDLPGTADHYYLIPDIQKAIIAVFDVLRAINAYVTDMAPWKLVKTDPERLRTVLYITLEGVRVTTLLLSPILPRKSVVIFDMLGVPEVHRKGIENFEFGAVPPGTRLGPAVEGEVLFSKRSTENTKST

[4] = Counterscreen for inhibitors of Trypanosoma brucei methionyl tRNA synthetase (MetRS): Luminescence-based cell-based high throughput dose response assay to identify compounds that are cytotoxic to Jurkat human T lymphocyte cells.; assay type: functional
[5] = target: T1, Methionyl-tRNA synthetase, putative; assay type: functional, Trypanosoma brucei brucei strain 927/4 GUTat10.1; remark: listed apart in the source
[6] = target: T2, Oxysterols receptor LXR-beta (Homo sapiens, UniProt P55055); assay: LXR agonists, Gal4 luciferase reporter, dose response, counter-screen for ssDAF-12 agonist project, cell-based, luminescence, HEK293, S. stercoralis campaign (AID 720737); assay type: functional; conditions: read-out: IC50 (the source's name)
T2 sequence (P55055 whole entry): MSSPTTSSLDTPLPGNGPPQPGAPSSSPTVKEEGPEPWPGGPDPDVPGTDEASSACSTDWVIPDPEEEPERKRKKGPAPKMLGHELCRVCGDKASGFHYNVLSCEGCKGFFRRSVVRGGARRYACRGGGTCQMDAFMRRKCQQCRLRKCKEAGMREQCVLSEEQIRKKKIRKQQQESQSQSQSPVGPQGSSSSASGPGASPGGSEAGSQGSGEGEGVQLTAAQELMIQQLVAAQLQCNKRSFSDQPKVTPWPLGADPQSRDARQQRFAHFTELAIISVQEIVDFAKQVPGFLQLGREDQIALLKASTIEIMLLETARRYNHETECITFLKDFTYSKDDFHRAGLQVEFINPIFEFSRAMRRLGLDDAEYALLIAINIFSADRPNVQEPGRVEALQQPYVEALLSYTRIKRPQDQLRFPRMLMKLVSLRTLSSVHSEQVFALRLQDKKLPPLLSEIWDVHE

Fatty acid synthase [7] = target: T3, Fatty acid synthase (Homo sapiens, UniProt P49327); assay: inhibition of human FAS-TE enzyme activity – biochemical, kinetic fluorescence intensity, dose response (AID 624326); assay type: functional;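 also: rate of fluorescence rise from hydrolysis of a fluorogenic O-methyl fluorescein ester substrate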
Fatty acid synthase [8] = target: T3, Fatty acid synthase; assay: inhibition of human FAS-TE enzyme activity – biochemical, endpoint fluorescence intensity, uHTS hits, dose response (AID 624327); assay type: functional;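 also: fluorescence from hydrolysis of an O-methyl fluorescein acyl ester substrate by the enzyme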
[9] = target: T4, Rac GTPase-activating protein 1 (Homo sapiens, UniProt Q9H0H5); assay: blockers of MgcRacGAP-driven Rac1 GTP hydrolysis – biochemical, ADP Hunter fluorescence, primary and confirmatory, confirmation (AID 624330); assay type: functional
T4 sequence (Q9H0H5 whole entry): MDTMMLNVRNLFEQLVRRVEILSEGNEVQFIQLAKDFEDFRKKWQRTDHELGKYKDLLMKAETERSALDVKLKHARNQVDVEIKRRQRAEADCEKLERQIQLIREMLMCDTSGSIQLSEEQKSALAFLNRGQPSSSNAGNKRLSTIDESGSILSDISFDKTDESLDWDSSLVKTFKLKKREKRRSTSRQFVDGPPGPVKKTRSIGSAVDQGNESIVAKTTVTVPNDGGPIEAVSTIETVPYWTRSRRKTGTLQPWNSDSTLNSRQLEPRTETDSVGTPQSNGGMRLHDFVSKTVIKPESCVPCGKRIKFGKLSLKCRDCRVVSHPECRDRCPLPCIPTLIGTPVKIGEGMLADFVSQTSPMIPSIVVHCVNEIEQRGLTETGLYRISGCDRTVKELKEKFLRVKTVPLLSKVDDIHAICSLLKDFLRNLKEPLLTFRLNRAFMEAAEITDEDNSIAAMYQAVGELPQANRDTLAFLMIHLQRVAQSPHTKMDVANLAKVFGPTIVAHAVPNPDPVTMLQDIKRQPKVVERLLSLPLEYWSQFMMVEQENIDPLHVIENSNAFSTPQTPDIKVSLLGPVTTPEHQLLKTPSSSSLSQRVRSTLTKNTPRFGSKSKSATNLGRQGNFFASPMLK

[10] = viability loss in HeLa cells – cytotoxicity control for MgcRacGAP inhibitor project, dose response (AID 624300); assay type: functional
[11] = Luminescence-based cell-based high throughput dose response assay to identify activators of the DAF-12 from the parasite S. stercoralis (ssDAF-12).; assay type: functional
cells [12] = assay: cells
[13] = optical artefact potency, substrate without enzyme – biochemical, fluorescence intensity, triplicate, artefact control for kallikrein-7 zymogen activator project, dose response (AID 720493)
Kallikrein-7 = Kallikrein-7 (Homo sapiens, UniProt P49862); assay: Fluorescence Intensity-based biochemical primary high throughput dose response assay to identify activators of kallikrein-7 (K7) zymogen.
[14] = target: Endoplasmic reticulum aminopeptidase 1 (Homo sapiens, UniProt Q9NZ08); assay: inhibition of human ERAP1 enzyme activity – biochemical, cherry-pick, set 2, plate reader, dose response (AID 743314)
[15] = viability loss in CEM21 cells – cell-based, plate reader, dry powder, cytotoxicity control, dose response (AID 687026); assay type: functional
[16] = HIV-1 AD8 envelope cell-cell fusion blockers – cherry-pick, dose response (AID 652062); assay type: functional, cell-based;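 also: luciferase signal from cell-cell fusion driven by HIV-1 clade B AD8 Env; potency is for inhibitors of fusion seen as a drop in luminescence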
[17] = inhibition of Env-driven cell fusion – HIV entry, plate reader, dry powder, dose response (AID 687023); assay type: functional, cell-based
[18] = blockers of HIV-1 envelope-mediated cell-cell fusion – cherry-pick, dose response (AID 652057); assay type: functional, cell-based
[19] = toxicity toward immortalized ovarian surface epithelium – cell-based, plate reader, dry powder samples, cytotoxicity control for PAX8 inhibitor project, dose response (AID 743045); assay type: functional
[20] = PAX8-dependent cell viability loss – plate reader, dry powder, dose response (AID 743049); assay type: functional, cell-based
[21] = COV362 cell viability loss – plate reader, dry powder, SA12, cytotoxicity control for PAX8 inhibitor project, dose response (AID 743144); assay type: functional, cell-based
[22] = IGROV1 cell killing – plate reader, dry powder samples, PAX8 inhibitor project, dose response (AID 743043); assay type: functional, cell-based; conditions: IGROV-1
[23] = OV-90 cell viability loss – plate reader, dry powder, SA8, PAX8 inhibitor project, dose response (AID 743149); assay type: functional, cell-based
[24] = OVCAR4 cell viability loss – plate reader, dry powder, SA11, cytotoxicity control for PAX8 inhibitor project, dose response (AID 743150); assay type: functional, cell-based; conditions: OVCAR-4
[25] = COV434 cell viability loss – plate reader, dry powder, SA7, cytotoxicity control for PAX8 inhibitor project, dose response (AID 743145); assay type: functional, cell-based
[26] = OVCAR-3 cell viability loss – plate reader, dry powder samples, PAX8 inhibitor project, dose response (AID 743044); assay type: functional, cell-based
[27] = A549 cell cytotoxicity, dose response, cytotoxicity control, plate reader, cherry-pick, antagonist series (AID 743412); assay type: functional, cell-based
[28] = inhibition of bursicon-driven LGR2 cAMP signaling – cell-based, HEK293, CRE-luciferase reporter, cherry pick, dose response (AID 743342); assay type: functional
[29] = blockade of melanocortin 4 receptor signaling – cell-based, plate reader, cherry pick, counter-screen for LGR2 antagonist project, dose response (AID 743444); assay type: functional;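 also: transfected HEK 293 cells stimulated with alpha-MSH peptide; potency of inhibitors of the alpha-MSH evoked signal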
[30] = viability loss in HEK293 cells – cell-based, plate reader, cherry-picked samples, cytotoxicity control, dose response (AID 743446); assay type: functional
[31] = inhibition of mouse IRAP aminopeptidase activity – biochemical, Leu-AMC fluorescence, cherry-picked samples, set 2, selectivity assay for ERAP1 modulator project, dose response (AID 743340)
[32] = target: T5, High affinity choline transporter 1 (Homo sapiens, UniProt Q9GZV3); assay: inhibition of SLC5A7-mediated choline transport – cell-based, HEK-293 hCHT, [3H]-choline uptake, dose response (AID 652177); assay type: functional
T5 sequence (Q9GZV3 whole entry): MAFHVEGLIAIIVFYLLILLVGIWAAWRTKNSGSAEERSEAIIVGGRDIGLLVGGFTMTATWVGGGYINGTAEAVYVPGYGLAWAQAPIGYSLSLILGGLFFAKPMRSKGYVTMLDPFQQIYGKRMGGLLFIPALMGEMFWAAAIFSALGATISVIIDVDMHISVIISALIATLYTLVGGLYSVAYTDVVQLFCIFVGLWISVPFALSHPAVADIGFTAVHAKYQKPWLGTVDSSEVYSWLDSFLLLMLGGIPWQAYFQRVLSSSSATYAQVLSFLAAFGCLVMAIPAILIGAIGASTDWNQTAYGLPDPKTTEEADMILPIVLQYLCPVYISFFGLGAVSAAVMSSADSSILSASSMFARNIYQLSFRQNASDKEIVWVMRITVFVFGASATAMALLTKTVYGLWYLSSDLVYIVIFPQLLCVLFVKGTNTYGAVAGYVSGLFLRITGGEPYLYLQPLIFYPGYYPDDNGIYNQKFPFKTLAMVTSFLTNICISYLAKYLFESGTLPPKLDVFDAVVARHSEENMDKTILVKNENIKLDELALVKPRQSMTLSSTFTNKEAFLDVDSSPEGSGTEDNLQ

cells [33] = assay: cells; remark: listed apart in the source
H4 = assay: Luminescence Cell-Based Dose Response HTS to Identify Activators of 5'UTR Stem-Loop Driven Prion Protein mRNA Translation in H4 Neuroglioblastoma Cells. [Related pubchem assays: 1829 (Project Summary), 1814 (Primary HTS)]; assay type: functional; conditions: Homo sapiens
[34] = target: T2, Oxysterols receptor LXR-beta; assay type: functional, cell-based
[35] = target: T2, Oxysterols receptor LXR-beta; assay type: functional, cell-based; remark: listed apart in the source

T3 sequence (P49327 whole entry): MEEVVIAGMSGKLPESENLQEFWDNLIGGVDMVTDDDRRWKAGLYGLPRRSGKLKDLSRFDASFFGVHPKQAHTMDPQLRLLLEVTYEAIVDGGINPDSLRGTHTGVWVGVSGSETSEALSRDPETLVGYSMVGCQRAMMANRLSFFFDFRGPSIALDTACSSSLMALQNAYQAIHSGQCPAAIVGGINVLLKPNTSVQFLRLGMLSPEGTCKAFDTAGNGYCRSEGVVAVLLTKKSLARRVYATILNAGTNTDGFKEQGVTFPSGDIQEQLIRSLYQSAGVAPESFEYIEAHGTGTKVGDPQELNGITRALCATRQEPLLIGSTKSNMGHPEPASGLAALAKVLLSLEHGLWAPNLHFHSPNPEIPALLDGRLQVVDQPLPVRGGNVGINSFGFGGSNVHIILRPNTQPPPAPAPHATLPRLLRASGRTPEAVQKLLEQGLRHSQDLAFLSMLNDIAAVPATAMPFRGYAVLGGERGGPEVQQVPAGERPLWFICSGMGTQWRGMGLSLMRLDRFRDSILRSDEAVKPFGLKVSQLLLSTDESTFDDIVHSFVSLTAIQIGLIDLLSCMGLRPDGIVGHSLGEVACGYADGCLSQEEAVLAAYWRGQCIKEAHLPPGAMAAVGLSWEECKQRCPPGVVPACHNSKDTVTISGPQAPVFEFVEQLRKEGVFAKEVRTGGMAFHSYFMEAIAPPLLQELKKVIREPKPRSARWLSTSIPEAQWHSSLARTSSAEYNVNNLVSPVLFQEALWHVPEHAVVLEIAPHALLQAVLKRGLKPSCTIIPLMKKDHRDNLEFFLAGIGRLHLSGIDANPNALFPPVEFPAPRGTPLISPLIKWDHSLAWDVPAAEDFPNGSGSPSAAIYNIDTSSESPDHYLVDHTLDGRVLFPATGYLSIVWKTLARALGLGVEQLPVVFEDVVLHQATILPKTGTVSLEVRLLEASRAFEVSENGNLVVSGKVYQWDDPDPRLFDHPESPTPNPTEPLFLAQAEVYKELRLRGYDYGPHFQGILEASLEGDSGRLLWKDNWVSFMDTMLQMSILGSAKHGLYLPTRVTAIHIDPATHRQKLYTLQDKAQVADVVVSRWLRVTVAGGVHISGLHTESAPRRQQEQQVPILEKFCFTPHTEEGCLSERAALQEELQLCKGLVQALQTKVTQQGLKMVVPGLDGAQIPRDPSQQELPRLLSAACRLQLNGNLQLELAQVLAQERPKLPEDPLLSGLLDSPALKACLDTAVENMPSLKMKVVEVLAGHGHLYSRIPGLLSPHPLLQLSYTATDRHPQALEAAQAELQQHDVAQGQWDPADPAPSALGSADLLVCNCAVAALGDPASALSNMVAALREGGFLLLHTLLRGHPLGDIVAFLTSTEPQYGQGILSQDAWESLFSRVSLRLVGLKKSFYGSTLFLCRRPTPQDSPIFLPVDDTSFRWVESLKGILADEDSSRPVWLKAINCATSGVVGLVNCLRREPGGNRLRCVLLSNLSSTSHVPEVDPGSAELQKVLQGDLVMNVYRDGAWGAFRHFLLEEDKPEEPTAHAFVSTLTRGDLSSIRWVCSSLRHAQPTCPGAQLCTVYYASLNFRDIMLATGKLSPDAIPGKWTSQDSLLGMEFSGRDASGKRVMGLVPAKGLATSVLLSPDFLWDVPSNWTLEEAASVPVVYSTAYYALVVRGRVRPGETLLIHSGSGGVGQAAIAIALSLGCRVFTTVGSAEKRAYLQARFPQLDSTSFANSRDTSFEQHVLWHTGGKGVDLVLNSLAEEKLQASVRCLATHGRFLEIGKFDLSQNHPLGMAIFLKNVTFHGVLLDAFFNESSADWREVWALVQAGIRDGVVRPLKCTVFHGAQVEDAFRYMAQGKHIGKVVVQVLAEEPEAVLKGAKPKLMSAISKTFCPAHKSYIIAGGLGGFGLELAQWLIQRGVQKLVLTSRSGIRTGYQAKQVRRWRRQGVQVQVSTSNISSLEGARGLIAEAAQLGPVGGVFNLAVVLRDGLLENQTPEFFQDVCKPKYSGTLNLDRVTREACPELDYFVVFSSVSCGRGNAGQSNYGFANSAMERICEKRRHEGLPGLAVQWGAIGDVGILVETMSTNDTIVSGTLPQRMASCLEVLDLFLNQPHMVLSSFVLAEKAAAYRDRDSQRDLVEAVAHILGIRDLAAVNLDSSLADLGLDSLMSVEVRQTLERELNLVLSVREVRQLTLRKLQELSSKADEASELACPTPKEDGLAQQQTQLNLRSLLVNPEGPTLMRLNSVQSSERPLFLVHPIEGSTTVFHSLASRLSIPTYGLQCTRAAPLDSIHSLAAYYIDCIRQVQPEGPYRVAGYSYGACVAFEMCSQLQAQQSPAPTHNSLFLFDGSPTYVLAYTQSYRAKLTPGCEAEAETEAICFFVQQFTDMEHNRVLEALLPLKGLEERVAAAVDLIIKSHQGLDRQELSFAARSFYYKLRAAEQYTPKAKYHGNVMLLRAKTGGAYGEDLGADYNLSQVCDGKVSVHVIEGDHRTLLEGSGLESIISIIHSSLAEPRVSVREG
Endoplasmic reticulum aminopeptidase 1, sequence (Q9NZ08 whole entry): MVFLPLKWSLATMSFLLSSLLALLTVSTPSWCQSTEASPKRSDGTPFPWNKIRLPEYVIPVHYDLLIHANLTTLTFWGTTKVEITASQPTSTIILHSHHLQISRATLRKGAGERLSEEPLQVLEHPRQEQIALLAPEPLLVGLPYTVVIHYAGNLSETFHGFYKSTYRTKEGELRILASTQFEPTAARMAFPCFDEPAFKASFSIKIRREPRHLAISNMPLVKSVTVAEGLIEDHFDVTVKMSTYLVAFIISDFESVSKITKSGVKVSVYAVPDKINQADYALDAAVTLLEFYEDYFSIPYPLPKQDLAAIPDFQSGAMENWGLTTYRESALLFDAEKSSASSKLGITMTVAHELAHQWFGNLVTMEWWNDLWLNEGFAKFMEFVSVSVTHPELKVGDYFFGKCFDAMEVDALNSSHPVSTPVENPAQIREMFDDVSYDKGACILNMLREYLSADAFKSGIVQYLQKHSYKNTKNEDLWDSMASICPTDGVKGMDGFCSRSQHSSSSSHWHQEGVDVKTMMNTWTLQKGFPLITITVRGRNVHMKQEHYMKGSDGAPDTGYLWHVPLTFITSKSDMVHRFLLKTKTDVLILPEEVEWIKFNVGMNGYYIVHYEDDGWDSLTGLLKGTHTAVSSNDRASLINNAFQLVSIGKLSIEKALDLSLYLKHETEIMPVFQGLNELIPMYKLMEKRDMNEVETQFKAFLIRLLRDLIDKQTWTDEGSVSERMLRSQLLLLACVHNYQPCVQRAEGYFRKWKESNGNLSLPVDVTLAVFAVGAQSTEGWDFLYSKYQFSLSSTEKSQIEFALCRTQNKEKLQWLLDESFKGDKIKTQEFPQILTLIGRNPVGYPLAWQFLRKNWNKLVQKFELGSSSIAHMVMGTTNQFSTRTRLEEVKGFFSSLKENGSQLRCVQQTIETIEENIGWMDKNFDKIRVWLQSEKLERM
Kallikrein-7, sequence (P49862 whole entry): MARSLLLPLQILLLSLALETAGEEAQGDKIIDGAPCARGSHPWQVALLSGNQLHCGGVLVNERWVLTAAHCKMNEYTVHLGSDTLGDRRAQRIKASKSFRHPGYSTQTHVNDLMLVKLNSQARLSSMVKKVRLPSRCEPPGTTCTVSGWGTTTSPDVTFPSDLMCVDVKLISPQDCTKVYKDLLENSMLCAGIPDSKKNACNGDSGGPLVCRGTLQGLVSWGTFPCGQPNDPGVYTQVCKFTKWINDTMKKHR
NAD-dependent protein deacylase sirtuin-5, mitochondrial, sequence (Q9NXA8 whole entry): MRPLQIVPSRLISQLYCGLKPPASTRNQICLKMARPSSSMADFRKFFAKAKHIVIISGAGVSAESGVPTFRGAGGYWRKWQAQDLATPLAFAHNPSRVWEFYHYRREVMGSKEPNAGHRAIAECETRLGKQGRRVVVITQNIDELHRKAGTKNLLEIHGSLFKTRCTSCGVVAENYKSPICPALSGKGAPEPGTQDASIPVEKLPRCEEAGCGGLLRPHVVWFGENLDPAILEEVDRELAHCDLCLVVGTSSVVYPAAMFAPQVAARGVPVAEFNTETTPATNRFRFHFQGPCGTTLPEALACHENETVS

Cc1cccc(Cn2c(N(C)CCO)nc3c2c(=O)[nH]c(=O)n3C)c1
AC50 [1]: > 30 µM (inactive)

COc1cccc(NC(=O)CSc2n[nH]c3c4cc(C)ccc4nc-3n2)c1
IC50 [2]: > 83.3 µM (inactive)
IC50 [3]: 0.101 µM (active)
IC50 [4]: 83.3 µM (inactive)
IC50 [5]: 0.0483 µM (active)

CCC(C)n1c(=S)[nH]c2c(sc3ccc([N+](=O)[O-])cc32)c1=O (stereo not drawn)
EC50 [6]: > 67.5 µM (inactive)
IC50 (Fatty acid synthase [7]): 15.5 µM (active)
IC50 (Fatty acid synthase [8]): 17.1 µM (active)
IC50 [9]: 73.3 µM (active)
CC50 [10]: 100 µM (active)
IC50 [11]: > 67.5 µM (inactive)

CC12CC(c3ccccc3O1)C(C(=O)OCc1ccccc1)C(=O)N2 (stereo not drawn)
AC50 (cells [12]): 0.151 µM (active)

CC1Nc2ccccc2C(=O)N1NS(C)(=O)=O (stereo not drawn)
EC50 [13]: > 7.73 µM (active)
EC50 (Kallikrein-7): 10.3 µM (inactive)

CC(C)(C)c1cc(N2CCOCC2)n2ncc(-c3ccccc3)c2n1
AC50 [14]: 14.2 µM (active)

C[C@@H]1CN([C@H](C)CO)C(=O)c2cccc(NC(=O)C3CCCCC3)c2O[C@H]1CN(C)Cc1ccccc1
AC50 [15]: 31 µM (active)
AC50 [16]: 3.35 µM (active)
AC50 [17]: 8.1 µM (active)
AC50 [18]: 12.1 µM (active)

O=C(CCCN1C(=O)/C(=C\c2cccc(Br)c2)SC1=S)Nc1ccccn1
AC50 [19]: 68.5 µM (active)
AC50 [20]: 17.6 µM (active)
AC50 [21]: 46.2 µM (active)
AC50 [22]: 14.8 µM (active)
AC50 [23]: 36.8 µM (active)
AC50 [24]: 42.7 µM (active)
AC50 [25]: 49.7 µM (active)
AC50 [26]: 18.9 µM (active)

COc1ccc(S(=O)(=O)N(C)C[C@@H]2OCCCC[C@H](C)Oc3ccc(NS(=O)(=O)c4ccc(Cl)cc4)cc3C(=O)N([C@@H](C)CO)C[C@@H]2C)cc1
AC50 [27]: 5.98 µM (active)
AC50 [28]: 3.79 µM (active)
AC50 [29]: 4.58 µM (active)
AC50 [30]: 28.5 µM (active)

COc1ccc(CN(C)C[C@@H]2OCCCC[C@@H](C)Oc3ccc(NS(=O)(=O)c4c(C)noc4C)cc3C(=O)N([C@@H](C)CO)C[C@@H]2C)cc1
AC50 [31]: 16.2 µM (active)

COc1ccc(C(=O)NCc2csc(C)n2)cc1OC1CCN(C(C)C)CC1
IC50 [32]: 6.18 µM (active)

C/C(=N\Nc1nc2c(s1)CCCC2)c1ccccc1
EC50 (cells [33]): > 67.5 µM (inactive)
EC50 (H4): 5.13 µM (active)
EC50 [34]: > 67.5 µM (inactive)

COC(=O)C1C(=O)c2c([nH]c(C(=O)OC3CCCCC3)c2C)CC1C (stereo not drawn)
EC50 [35]: > 67.5 µM (inactive)
EC50 (H4): 8.72 µM (active)
